Structures can show the parent of a compound that is named as a salt. Marks after values point to notes of the source that are not given here.
Assay: Plasma metabolite profiling (GC-MS, LC-MS, SPE-LC-MS) of rats dosed once daily over 28 days; treatment ratios versus untreated control
Format: in vivo, rat
Summary of the method: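 Male and female rats (5/sex/group) dosed once daily for 28 days; fasted anaesthetized animals bled retro-orbitally (EDTA plasma) on days 7, 14, 28, stored −80 °C under N2. Polar and lipid fractions profiled by GC-MS (derivatized), LC-MS/MRM; steroids by online SPE-LC-MS. Pool-normalized data; treatment ratios vs sex-matched controls, Welch test p-values.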

[1] = plasma, female rats, day 7, high dose, Table 4a
[2] = plasma, female rats, day 7, high dose, Table 4b
[3] = plasma, female rats, day 7, high dose, Table 6c
[4] = plasma, female rats, day 7, high dose, Table 6d
[5] = plasma, female rats, day 14, high dose, Table 4a
[6] = plasma, female rats, day 14, high dose, Table 4b
[7] = plasma, female rats, day 14, high dose, Table 6c
[8] = plasma, female rats, day 14, high dose, Table 6d
[9] = plasma, female rats, day 28, high dose, Table 4a
[10] = plasma, female rats, day 28, high dose, Table 4b
[11] = plasma, female rats, day 28, high dose, Table 6c
[12] = plasma, female rats, day 28, high dose, Table 6d
[13] = plasma, male rats, day 7, high dose, Table 3a
[14] = plasma, male rats, day 7, high dose, Table 3b
[15] = plasma, male rats, day 14, high dose, Table 3a
[16] = plasma, male rats, day 14, high dose, Table 3b
[17] = plasma, male rats, day 28, high dose, Table 3a
[18] = plasma, male rats, day 28, high dose, Table 3b

O=C1Cc2cc(CCN3CCN(c4nsc5ccccc45)CC3)c(Cl)cc2N1 [Ziprasidone hydrochloride]
Ceramide (d18:1,C24:1), ratio versus control [1]: 1.23
Docosapentaenoic acid (C22:cis[7,10,13,16,19]5), ratio versus control [1]: 2.26*
Elaidic acid (C18:trans[9]1), ratio versus control [1]: 1.52*
Galactose, lipid fraction, ratio versus control [1]: 1.46*
Myristic acid (C14:0), ratio versus control [1]: 1.53*
Phosphatidylcholine (C16:0,C16:0), ratio versus control [1]: 1.4*
Progesterone, ratio versus control [1]: 9.81*
TAG No 07, ratio versus control [1]: 3.4*
Creatinine, ratio versus control [2]: 0.87
Glutamate, ratio versus control [2]: 0.67*
Glycine, ratio versus control [2]: 0.86*
Lactate, ratio versus control [2]: 0.6*
Myristic acid (C14:0), ratio versus control [2]: 1.53
Normetanephrine, ratio versus control [2]: 0.73*
Phosphocreatine, ratio versus control [2]: 0.61*
Serotonin (5-HT), ratio versus control [2]: 0.11*
Uric acid, ratio versus control [2]: 0.51*
4-Hydroxysphinganine (t18:0, Phytosphingosine), total, ratio versus control [3]: 1.49*
Docosahexaenoic acid (C22:cis[4,7,10,13,16,19]6), ratio versus control [3]: 1.7*
Docosapentaenoic acid (C22:cis[7,10,13,16,19]5), ratio versus control [3]: 2.26*
Galactose, lipid fraction, ratio versus control [3]: 1.46*
Palmitic acid (C16:0), ratio versus control [3]: 1.56*
Phosphatidylcholine (C16:0,C16:0), ratio versus control [3]: 1.4*
Phosphatidylcholine (C16:0,C22:6), ratio versus control [3]: 1.02
Phosphatidylcholine No 02, ratio versus control [3]: 1.17*
TAG (C16:0,C16:1), ratio versus control [3]: 4.38*
TAG (C16:0,C18:1,C18:3), ratio versus control [3]: 2.8*
TAG (C16:0,C18:2), ratio versus control [3]: 2.47*
TAG (C18:2,C18:2), ratio versus control [3]: 2.44*
TAG (C18:2,C18:3), ratio versus control [3]: 3.48*
TAG (C18:3,C18:2,C18:1), ratio versus control [3]: 3.89*
TAG No 059, ratio versus control [3]: 3.12*
4-Hydroxyphenylpyruvate, ratio versus control [4]: 0.42*
Glycine, ratio versus control [4]: 0.86*
Lactate, ratio versus control [4]: 0.6*
Lysophosphatidylcholine (C16:0), ratio versus control [4]: 0.99*
Uric acid, ratio versus control [4]: 0.51*
Ceramide (d18:1,C24:1), ratio versus control [5]: 1.47*
Docosapentaenoic acid (C22:cis[7,10,13,16,19]5), ratio versus control [5]: 1.55*
Elaidic acid (C18:trans[9]1), ratio versus control [5]: 0.97
Galactose, lipid fraction, ratio versus control [5]: 1.17*
Myristic acid (C14:0), ratio versus control [5]: 1.09
Phosphatidylcholine (C16:1,C18:2), ratio versus control [5]: 1.06
Progesterone, ratio versus control [5]: 1.28
TAG No 07, ratio versus control [5]: 0.62
myo-Inositol, lipid fraction, ratio versus control [5]: 1.26*
Creatinine, ratio versus control [6]: 1.02
Glutamate, ratio versus control [6]: 0.71*
Glycine, ratio versus control [6]: 0.86*
Lactate, ratio versus control [6]: 0.66
Myristic acid (C14:0), ratio versus control [6]: 1.09
Normetanephrine, ratio versus control [6]: 0.88
Serotonin (5-HT), ratio versus control [6]: 0.59
Uric acid, ratio versus control [6]: 0.5*
4-Hydroxysphinganine (t18:0, Phytosphingosine), total, ratio versus control [7]: 1.43*
Docosahexaenoic acid (C22:cis[4,7,10,13,16,19]6), ratio versus control [7]: 1.43*
Docosapentaenoic acid (C22:cis[7,10,13,16,19]5), ratio versus control [7]: 1.55*
Galactose, lipid fraction, ratio versus control [7]: 1.17*
Phosphatidylcholine (C16:0,C20:5), ratio versus control [7]: 0.99
Phosphatidylcholine (C16:0,C22:6), ratio versus control [7]: 1.22*
Phosphatidylcholine (C16:1,C18:2), ratio versus control [7]: 1.06
Phosphatidylcholine No 02, ratio versus control [7]: 1.19*
TAG (C16:0,C16:1), ratio versus control [7]: 0.81
TAG (C16:0,C18:1,C18:3), ratio versus control [7]: 0.76
TAG (C16:0,C18:2), ratio versus control [7]: 0.91
TAG (C18:2,C18:2), ratio versus control [7]: 0.81
TAG (C18:2,C18:3), ratio versus control [7]: 0.76
TAG (C18:3,C18:2,C18:1), ratio versus control [7]: 0.91
TAG No 059, ratio versus control [7]: 0.84
4-Hydroxyphenylpyruvate, ratio versus control [8]: 0.21*
Glycine, ratio versus control [8]: 0.86*
Lactate, ratio versus control [8]: 0.66
Lysophosphatidylcholine (C16:0), ratio versus control [8]: 1
Uric acid, ratio versus control [8]: 0.5*
Ceramide (d18:1,C24:1), ratio versus control [9]: 1.2
Docosapentaenoic acid (C22:cis[7,10,13,16,19]5), ratio versus control [9]: 1.54*
Elaidic acid (C18:trans[9]1), ratio versus control [9]: 1.18
Galactose, lipid fraction, ratio versus control [9]: 1.22
Myristic acid (C14:0), ratio versus control [9]: 1.18
Phosphatidylcholine (C16:1,C18:2), ratio versus control [9]: 1.5*
Progesterone, ratio versus control [9]: 2.41*
TAG No 07, ratio versus control [9]: 1.02
myo-Inositol, lipid fraction, ratio versus control [9]: 1.2
Creatinine, ratio versus control [10]: 0.89*
Glutamate, ratio versus control [10]: 0.76*
Glycine, ratio versus control [10]: 0.91
Lactate, ratio versus control [10]: 0.62*
Myristic acid (C14:0), ratio versus control [10]: 1.18
Normetanephrine, ratio versus control [10]: 0.95
Phosphocreatine, ratio versus control [10]: 0.47
Serotonin (5-HT), ratio versus control [10]: 1.37
Uric acid, ratio versus control [10]: 0.73*
Docosahexaenoic acid (C22:cis[4,7,10,13,16,19]6), ratio versus control [11]: 1.26
Docosapentaenoic acid (C22:cis[7,10,13,16,19]5), ratio versus control [11]: 1.54*
Galactose, lipid fraction, ratio versus control [11]: 1.22
Palmitic acid (C16:0), ratio versus control [11]: 1.2*
Phosphatidylcholine (C16:0,C20:5), ratio versus control [11]: 1.17*
Phosphatidylcholine (C16:1,C18:2), ratio versus control [11]: 1.5*
Phosphatidylcholine No 02, ratio versus control [11]: 1.2*
TAG (C16:0,C16:1), ratio versus control [11]: 1.75*
TAG (C16:0,C18:1,C18:3), ratio versus control [11]: 1.3*
TAG (C16:0,C18:2), ratio versus control [11]: 1.38*
TAG (C18:2,C18:3), ratio versus control [11]: 1.46*
TAG (C18:3,C18:2,C18:1), ratio versus control [11]: 1.44*
TAG No 059, ratio versus control [11]: 1.58*
4-Hydroxyphenylpyruvate, ratio versus control [12]: 1.02
Glycine, ratio versus control [12]: 0.91
Lactate, ratio versus control [12]: 0.62*
Lysophosphatidylcholine (C16:0), ratio versus control [12]: 0.98*
Uric acid, ratio versus control [12]: 0.73*
3-Methoxytyrosine, ratio versus control [13]: 1.12
Arginine, ratio versus control [13]: 1.22*
Tryptophan, ratio versus control [13]: 1.1
Glycine, ratio versus control [14]: 0.82*
Threonic acid, ratio versus control [14]: 0.66*
Arginine, ratio versus control [15]: 1.11*
myo-Inositol-2-phosphate, lipid fraction, ratio versus control [15]: 1.44*
Glycine, ratio versus control [16]: 0.95
Threonic acid, ratio versus control [16]: 0.52*
3-Methoxytyrosine, ratio versus control [17]: 1.47*
Arginine, ratio versus control [17]: 0.98
Tryptophan, ratio versus control [17]: 1.18*
myo-Inositol-2-phosphate, lipid fraction, ratio versus control [17]: 1.63*
Glycine, ratio versus control [18]: 0.86*
Threonic acid, ratio versus control [18]: 0.63*
3-Methoxytyrosine, ratio versus control (rat, in vivo): 1.33*
4-Hydroxysphinganine (t18:0, Phytosphingosine), total, ratio versus control (rat, in vivo): 1.16*
Palmitic acid (C16:0), ratio versus control (rat, in vivo): 1.12*
Phosphatidylcholine (C16:0,C16:0), ratio versus control (rat, in vivo): 1.32*
Phosphatidylcholine (C16:0,C20:5), ratio versus control (rat, in vivo): 1.05*
Phosphatidylcholine (C16:0,C22:6), ratio versus control (rat, in vivo): 1.15*
Phosphatidylcholine (C16:1,C18:2), ratio versus control (rat, in vivo): 1.41*
TAG (C18:2,C18:2), ratio versus control (rat, in vivo): 1.41*
Tryptophan, ratio versus control (rat, in vivo): 1.16*
myo-Inositol, lipid fraction, ratio versus control (rat, in vivo): 1.41*
myo-Inositol-2-phosphate, lipid fraction, ratio versus control (rat, in vivo): 1.41*

Source: patent US20150031572A1, “MEANS AND METHODS FOR ASSESSING NEURONAL TOXICITY” (priority 2012, published 2015)
